Data on two compounds can be found in paper PMC9313321 (Biomedicines, 2022).

Entries after “also recorded” stand apart in the source; their conditions may differ.

In assay [1] the test system is SH-SY5Y cells. Kind of assay: Neuroprotection against Aβ42-induced toxicity (MTT reduction). It is filed as cell-based, human. The note with it: 1 h pre-incubation + 24 h with Aβ42 1 µM, 4d at 3 µM. The protocol: (§1) SH-SY5Y human neuroblastoma cells (ATCC-CRL-2266) were kept in culture using Dulbecco’s Modified Eagle Medium (DMEM) (Gibco-Invitrogen, Life Technologies Ltd., Waltham, MA, USA) containing 10% heat-inactivated fetal bovine serum (FBS), 50 U mL^−1 penicillin and 50 μg mL^−1 streptomycin. Incubation of the cells occurred at 37 °C in 5% CO2. The toxicity of the compounds was tested through cell viability assays, with cells seeded with a density of 0.24 × 10^6 cells mL^−1. DMSO was used to dissolve each tested compound (4a–4d, 5a, 5b), affording stock solutions with concentrations of 25 mM. Aliquots of these solutions were stored at −20 °C. Concentrations from 1 μM to 10 μM were screened in order to select the highest non-toxic concentration of each compound. Consequently, compounds 4a, 4b and 5b were tested at 1 μM final concentration; compounds 4c and 5a were tested at 2 μM final concentration; compound 4d was tested at a final concentration of 3 μM. The DMSO concentrations in the culture media were lower than 0.05% (v/v) and the viability of the SH-SY5Y cells was not altered in a detectable manner. […]
(§2) The colorimetric MTT (3-(4,5-dimethylthiazol-2-yl)-2,5-diphenyltetrazolium bromide) reduction assay was used to determine cell viability. […] The absorbance of each well was measured at 570 nm. […]
(§3) All data were expressed as means ± SEMs of at least five independent experiments performed in duplicate. […]
For orientation: Tetrazolium dyes change colour on reduction, which living cells bring about.

Assay [2] has as its system SH-SY5Y cells. The assay is described as follows: Neuroprotection against Fe/Ascorbate toxicity (MTT reduction). Type of assay: cell-based, human. The note with it: 1 h pre-incubation + 24 h with Fe 2.5 mM/Asc 5 mM, 5a at 2 µM. On the procedure: as §1, §2, §3

Regarding `CCN(C)C(=O)Oc1ccc(CCCNC(=O)c2ccc3nc(-c4ccccc4O)[nH]c3c2)cc1` [Compound 4d, 4-(3-(2-(2-Hydroxyphenyl)-1H-benzo[d]imidazole-6-carboxamido)propyl) Phenyl Ethylmethylcarbamate], the “Neuroprotective effect against Aβ42-induced toxicity (cell viability, MTT)” value in assay [1] is recorded as “significantly prevented Aβ-induced cell toxicity; also recorded: best neuroprotective capacities”.

For `CCN(C)C(=O)Oc1cccc(NC(=O)c2cccc3[nH]c(-c4ccccc4O)nc23)c1` [Compound 5a, 3-(2-(2-Hydroxyphenyl)-1H-benzo[d]imidazole-4-carboxamido)phenyl Ethylmethylcarbamate], the “Neuroprotective effect against Fe/Ascorbate toxicity (cell viability, MTT)” value in assay [2] is on record as “statistically significant neuroprotective effect; also recorded: best neuroprotective capacities”.
